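These data come from cells grown in 96-well plates and exposed to compound for 48 hours at five concentrations. GI50: concentration for 50% inhibition of growth. TGI denotes the concentration required for complete inhibition of growth.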
How the values were obtained:
Assay in all cases: DTP human tumour cell line panel, 48 h
SK-OV-3 ovarian = system: SK-OV-3 ovarian
RXF 393 renal = system: RXF 393 renal
IGROV1 ovarian = system: IGROV1 ovarian
KM12 colon = system: KM12 colon
SF-539 CNS = system: SF-539 CNS
NCI/ADR-RES ovarian = system: NCI/ADR-RES ovarian
SK-MEL-28 melanoma = system: SK-MEL-28 melanoma
NCI-H522 lung = system: NCI-H522 lung
SF-295 CNS = system: SF-295 CNS
A549 NSCLC = system: A549 NSCLC
HCC-2998 colon = system: HCC-2998 colon
DU-145 prostate = system: DU-145 prostate
OVCAR-5 ovarian = system: OVCAR-5 ovarian
HCT-116 colon = system: HCT-116 colon
MALME-3M melanoma = system: MALME-3M melanoma
NCI-H23 lung = system: NCI-H23 lung
OVCAR-4 ovarian = system: OVCAR-4 ovarian
CCRF-CEM leukemia = system: CCRF-CEM leukemia
LOX IMVI melanoma = system: LOX IMVI melanoma
NCI-H226 lung = system: NCI-H226 lung
OVCAR-8 ovarian = system: OVCAR-8 ovarian
UACC-62 melanoma = system: UACC-62 melanoma
MOLT-4 leukemia = system: MOLT-4 leukemia
SNB-75 CNS = system: SNB-75 CNS
SW-620 colon = system: SW-620 colon
PC-3 prostate = system: PC-3 prostate
SN12C renal = system: SN12C renal
NCI-H460 lung = system: NCI-H460 lung
SR leukemia = system: SR leukemia
MDA-MB-435 = system: MDA-MB-435
RPMI-8226 leukemia = system: RPMI-8226 leukemia
OVCAR-3 ovarian = system: OVCAR-3 ovarian
HOP-62 NSCLC = system: HOP-62 NSCLC
MDA-MB-231 breast = system: MDA-MB-231 breast
A498 renal = system: A498 renal
TK-10 renal = system: TK-10 renal
COLO 205 colon = system: COLO 205 colon
UACC-257 melanoma = system: UACC-257 melanoma
U251 CNS = system: U251 CNS
HOP-92 NSCLC = system: HOP-92 NSCLC
SF-268 CNS = system: SF-268 CNS
786-0 renal = system: 786-0 renal
HS 578T breast = system: HS 578T breast
ACHN renal = system: ACHN renal
UO-31 renal = system: UO-31 renal
MCF7 breast = system: MCF7 breast
SK-MEL-2 melanoma = system: SK-MEL-2 melanoma
BT-549 breast = system: BT-549 breast
SNB-19 CNS = system: SNB-19 CNS
T-47D breast = system: T-47D breast
CAKI-1 renal = system: CAKI-1 renal
HT29 colon = system: HT29 colon
HCT-15 colon = system: HCT-15 colon
SK-MEL-5 melanoma = system: SK-MEL-5 melanoma
K-562 leukemia = system: K-562 leukemia
M14 melanoma = system: M14 melanoma
EKVX NSCLC = system: EKVX NSCLC
HL-60(TB) leukemia = system: HL-60(TB) leukemia

C[C@@H]1CC[C@H]2C(CN(C)CC3=C(C(F)(F)F)O[C@@H]4O[C@@]5(C)CC[C@H]6[C@H](C)CC[C@@H]3[C@@]46OO5)=C(C(F)(F)F)O[C@@H]3O[C@@]4(C)CC[C@@H]1[C@]32OO4
GI50 (SK-OV-3 ovarian): > 100 µM
TGI (SK-OV-3 ovarian): > 100 µM
GI50 (RXF 393 renal): 2.83 µM
TGI (RXF 393 renal): > 100 µM
GI50 (IGROV1 ovarian): 2.3 µM
TGI (IGROV1 ovarian): > 23.9 µM
GI50 (KM12 colon): 0.381 µM
TGI (KM12 colon): 20.1 µM
GI50 (SF-539 CNS): 0.488 µM
TGI (SF-539 CNS): > 100 µM
GI50 (NCI/ADR-RES ovarian): 16.8 µM
TGI (NCI/ADR-RES ovarian): > 59.2 µM
GI50 (SK-MEL-28 melanoma): > 32.8 µM
TGI (SK-MEL-28 melanoma): > 100 µM
GI50 (NCI-H522 lung): 2.67 µM
TGI (SF-295 CNS): > 51.5 µM
GI50 (A549 NSCLC): 1.58 µM
TGI (A549 NSCLC): > 45.4 µM
GI50 (HCC-2998 colon): 18.9 µM
TGI (HCC-2998 colon): > 59.5 µM
GI50 (DU-145 prostate): 2.69 µM
TGI (DU-145 prostate): 16.8 µM
GI50 (OVCAR-5 ovarian): 0.935 µM
TGI (OVCAR-5 ovarian): > 100 µM
GI50 (HCT-116 colon): 0.415 µM
TGI (HCT-116 colon): 32.9 µM
GI50 (MALME-3M melanoma): 1.06 µM
TGI (MALME-3M melanoma): > 83.9 µM
GI50 (NCI-H23 lung): 0.818 µM
TGI (NCI-H23 lung): 27 µM
GI50 (OVCAR-4 ovarian): 1.12 µM
TGI (OVCAR-4 ovarian): 56.6 µM
GI50 (CCRF-CEM leukemia): 1.31 µM
TGI (CCRF-CEM leukemia): > 42.9 µM
GI50 (LOX IMVI melanoma): 0.715 µM
TGI (LOX IMVI melanoma): 1.98 µM
GI50 (NCI-H226 lung): 3.71 µM
TGI (NCI-H226 lung): > 64.9 µM
GI50 (OVCAR-8 ovarian): 1.58 µM
TGI (OVCAR-8 ovarian): > 53.6 µM
GI50 (UACC-62 melanoma): 12.4 µM
TGI (UACC-62 melanoma): > 100 µM
GI50 (MOLT-4 leukemia): > 25.4 µM
TGI (MOLT-4 leukemia): > 100 µM
TGI (SNB-75 CNS): > 23.9 µM
GI50 (SW-620 colon): 0.65 µM
TGI (SW-620 colon): 53.3 µM
GI50 (PC-3 prostate): 0.231 µM
TGI (PC-3 prostate): > 100 µM
GI50 (SN12C renal): 7.47 µM
TGI (SN12C renal): > 100 µM
GI50 (NCI-H460 lung): 1.32 µM
TGI (NCI-H460 lung): > 56.9 µM
GI50 (SR leukemia): 81.9 µM
TGI (SR leukemia): > 100 µM
GI50 (MDA-MB-435): 0.549 µM
TGI (MDA-MB-435): 40.2 µM
GI50 (RPMI-8226 leukemia): 0.82 µM
TGI (RPMI-8226 leukemia): > 49.6 µM
GI50 (OVCAR-3 ovarian): 0.419 µM
TGI (OVCAR-3 ovarian): 12.1 µM
GI50 (HOP-62 NSCLC): 34.4 µM
TGI (HOP-62 NSCLC): > 100 µM
GI50 (MDA-MB-231 breast): 5.9 µM
TGI (MDA-MB-231 breast): > 93.1 µM
GI50 (A498 renal): 3.92 µM
TGI (A498 renal): > 100 µM
GI50 (TK-10 renal): 4.93 µM
TGI (TK-10 renal): > 54.2 µM
GI50 (COLO 205 colon): 0.728 µM
TGI (COLO 205 colon): > 100 µM
GI50 (UACC-257 melanoma): 1.9 µM
TGI (UACC-257 melanoma): > 51.1 µM
GI50 (U251 CNS): 0.405 µM
TGI (U251 CNS): 22.6 µM
GI50 (HOP-92 NSCLC): 11.4 µM
TGI (HOP-92 NSCLC): > 94.4 µM
GI50 (SF-268 CNS): 2.82 µM
TGI (SF-268 CNS): > 95.7 µM
GI50 (786-0 renal): 4.03 µM
TGI (786-0 renal): 41.7 µM
GI50 (HS 578T breast): 2.25 µM
GI50 (ACHN renal): 1.81 µM
TGI (ACHN renal): 14.9 µM
GI50 (UO-31 renal): 2.86 µM
GI50 (MCF7 breast): 1.56 µM
TGI (MCF7 breast): > 100 µM
GI50 (SK-MEL-2 melanoma): > 37.1 µM
TGI (SK-MEL-2 melanoma): > 80.7 µM
GI50 (BT-549 breast): 14.3 µM
TGI (BT-549 breast): 54.4 µM
GI50 (SNB-19 CNS): 23.6 µM
TGI (SNB-19 CNS): > 100 µM
GI50 (T-47D breast): 0.236 µM
TGI (T-47D breast): 39.7 µM
GI50 (CAKI-1 renal): 3.19 µM
TGI (CAKI-1 renal): 18.2 µM
GI50 (HT29 colon): 2.76 µM
TGI (HT29 colon): > 100 µM
GI50 (HCT-15 colon): 0.506 µM
TGI (HCT-15 colon): > 100 µM
GI50 (SK-MEL-5 melanoma): 1.86 µM
TGI (SK-MEL-5 melanoma): 18.9 µM
TGI (K-562 leukemia): > 42.6 µM
GI50 (M14 melanoma): 2.69 µM
TGI (M14 melanoma): > 100 µM

[O-][n+]1cc(SCc2ccccc2)ncc1SCc1ccccc1
TGI (SK-OV-3 ovarian): > 10 µM
TGI (RXF 393 renal): > 10 µM
TGI (IGROV1 ovarian): > 10 µM
TGI (KM12 colon): > 10 µM
TGI (SF-539 CNS): > 10 µM
TGI (NCI/ADR-RES ovarian): > 10 µM
TGI (SK-MEL-28 melanoma): > 10 µM
TGI (NCI-H522 lung): > 10 µM
TGI (SF-295 CNS): > 10 µM
TGI (A549 NSCLC): > 10 µM
TGI (HCC-2998 colon): > 10 µM
TGI (DU-145 prostate): > 10 µM
TGI (OVCAR-5 ovarian): > 10 µM
TGI (HCT-116 colon): > 10 µM
TGI (MALME-3M melanoma): > 10 µM
TGI (EKVX NSCLC): > 10 µM
TGI (NCI-H23 lung): > 10 µM
TGI (OVCAR-4 ovarian): > 10 µM
TGI (CCRF-CEM leukemia): > 10 µM
TGI (LOX IMVI melanoma): > 10 µM
TGI (NCI-H226 lung): > 10 µM
TGI (OVCAR-8 ovarian): > 10 µM
TGI (UACC-62 melanoma): > 10 µM
TGI (MOLT-4 leukemia): > 10 µM
TGI (HL-60(TB) leukemia): > 10 µM
TGI (SNB-75 CNS): > 10 µM
TGI (PC-3 prostate): > 10 µM
TGI (SN12C renal): > 10 µM
TGI (NCI-H460 lung): > 10 µM
TGI (SR leukemia): > 10 µM
TGI (MDA-MB-435): > 10 µM
TGI (RPMI-8226 leukemia): > 10 µM
TGI (OVCAR-3 ovarian): > 10 µM
TGI (HOP-62 NSCLC): > 10 µM
TGI (MDA-MB-231 breast): > 10 µM
TGI (A498 renal): > 10 µM
TGI (TK-10 renal): > 10 µM
TGI (COLO 205 colon): > 10 µM
TGI (UACC-257 melanoma): > 10 µM
TGI (U251 CNS): > 10 µM
TGI (HOP-92 NSCLC): > 10 µM
TGI (SF-268 CNS): > 10 µM
TGI (786-0 renal): > 10 µM
TGI (HS 578T breast): > 10 µM
TGI (ACHN renal): > 10 µM
TGI (UO-31 renal): > 10 µM
TGI (MCF7 breast): > 10 µM
TGI (SK-MEL-2 melanoma): > 10 µM
TGI (BT-549 breast): > 10 µM
TGI (T-47D breast): > 10 µM
TGI (CAKI-1 renal): > 10 µM
TGI (HT29 colon): > 10 µM
TGI (HCT-15 colon): > 10 µM
TGI (SK-MEL-5 melanoma): > 10 µM
TGI (K-562 leukemia): > 10 µM
TGI (M14 melanoma): > 10 µM
